Consider 1 molecule from ChEMBL document CHEMBL5331104, “Discovery of BRD4-HDAC Dual Inhibitors with Improved Fungal Selectivity and Potent Synergistic Antifungal Activity against Fluconazole-Resistant Candida albicans” (J Med Chem, 2023).

The subject of assay [1] is Candida albicans. The experiment in a line: Synergetic antifungal activity against Candida albicans 9172 assessed as microbial growth inhibition incubated for 24 hrs in the presence of (S)-4-((2-(6-(4-Chlorophenyl)-1-methyl-7,8,9,10-tetrahydro-4H-benzo-(4,5)thieno[3,2-f][1,2,4]triazolo(4,3-a)(1,4)diazepin-4-yl)-acetamido)-methyl)-N-hydroxybenzamide by checkerboard microdilution method. Format: functional.

The subject of assay [2] is Candida albicans. In words: Downregulation of ADH5 expression in Candida albicans 0304103 at 32 ug/mL incubated for 24 hrs by RT q-PCR analysis. Format: functional. To be noted: dose 32.0 µg/ml.
In assay [3] the test system is Candida albicans. In words: Synergetic antifungal activity against Candida albicans 0304103 assessed as microbial growth inhibition incubated for 24 hrs in the presence of (S)-2-(6-(4-Chlorophenyl)-1-methyl-7,8,9,10-tetrahydro-4H-benzo-(4,5)thieno[3,2-f][1,2,4]triazolo(4,3-a)(1,4)diazepin-4-yl)-N-(4-(2-(hydroxyamino)-2-oxoethyl)phenyl)acetamide by checkerboard microdilution method. Format: functional. For orientation: Broth dilution looks for growth in wells or tubes with falling amounts of substance.

The subject of assay [4] is Candida albicans. The experiment in a line: Synergetic antifungal activity against Candida albicans 0304103 assessed as microbial growth inhibition incubated for 24 hrs in the presence of (+)-JQ1 by checkerboard microdilution method. The class given is functional.
The subject of a further assay is [Candida] auris. In words: Synergetic antifungal activity against Candida auris 0030 assessed as microbial growth inhibition incubated for 24 hrs in the presence of (S)-4-((2-(6-(4-Chlorophenyl)-1-methyl-7,8,9,10-tetrahydro-4H-benzo-(4,5)thieno[3,2-f][1,2,4]triazolo(4,3-a)(1,4)diazepin-4-yl)-acetamido)-methyl)-N-hydroxybenzamide by checkerboard microdilution method. The class given is functional. The note with it: Candidozyma auris.

In assay [5] the test system is Candida albicans. The experiment in a line: microbe, parasite or virus in culture. The class given is functional. To be noted: 0304103.
Description: Antifungal activity against Candida albicans 0304103 assessed as microbial growth inhibition
In assay [6] the test system is Candida albicans. The experiment in a line: Antifungal activity against Candida albicans 10061 assessed as microbial growth inhibition. The class given is functional.
The subject of another assay is Cryptococcus neoformans. In words: Synergetic antifungal activity against Cryptococcus neoformans 011405 assessed as microbial growth inhibition incubated for 24 hrs in the presence of (S)-4-((2-(6-(4-Chlorophenyl)-1-methyl-7,8,9,10-tetrahydro-4H-benzo-(4,5)thieno[3,2-f][1,2,4]triazolo(4,3-a)(1,4)diazepin-4-yl)-acetamido)-methyl)-N-hydroxybenzamide by checkerboard microdilution method. Format: functional.

The subject of assay [7] is Candida albicans. The experiment in a line: Synergetic antifungal activity against Candida albicans 0304103 assessed as microbial growth inhibition incubated for 24 hrs in the presence of (S,E)-N-Hydroxy-3-(4-(2-(l-methyl-6-phenyl-4H-benzo[f][1,2,4]-triazolo[4,3-a][1,4]diazepin-4-y1)acetamido)phenyl)acrylamide by checkerboard microdilution method. The class given is functional.

The subject of assay [8] is Candida albicans. The experiment in a line: Synergetic antifungal activity against Candida albicans 0304103 assessed as microbial growth inhibition incubated for 24 hrs in the presence of (S)-N-Hydroxy-2-(4-(2-(1-methyl-6-(p-toly1)-4H-benzo[f](1,2,4)-triazolo[4,3-a][1,4]diazepin-4-yl)acetamido)phenyl)acetamideby checkerboard microdilution method. The class given is functional.

The subject of assay [9] is Candida albicans. In words: Synergetic antifungal activity against Candida albicans 10061 assessed as microbial growth inhibition incubated for 24 hrs in the presence of (S)-4-((2-(6-(4-Chlorophenyl)-1-methyl-7,8,9,10-tetrahydro-4H-benzo-(4,5)thieno[3,2-f][1,2,4]triazolo(4,3-a)(1,4)diazepin-4-yl)-acetamido)-methyl)-N-hydroxybenzamide by checkerboard microdilution method. The class given is functional.

The subject of assay [10] is Candida albicans. In words: Synergetic antifungal activity against Candida albicans 0304103 assessed as microbial growth inhibition incubated for 24 hrs in the presence of SAHA by checkerboard microdilution method. Format: functional.
In assay [11] the test system is Candida albicans. The experiment in a line: Downregulation of CDR1 expression in Candida albicans 0304103 at 32 ug/mL incubated for 24 hrs by RT q-PCR analysis. Format: functional. To be noted: dose 32.0 µg/ml.
The subject of assay [12] is Candida albicans. The experiment in a line: Synergetic antifungal activity against Candida albicans 0304103 assessed as microbial growth inhibition incubated for 24 hrs in the presence of (S)-4-((2-(8-Chloro-6-(2-chloropheny1)-1-methyl-4H-benzo[f]-[1,2,4]-triazolo(4,3-a)(1,4]diazepin-4-yl)acetamido)methyl)-N-hydroxy-benzamide by checkerboard microdilution method. The class given is functional.

In assay [13] the test system is Candida albicans. The experiment in a line: Synergetic antifungal activity against Candida albicans 0304103 assessed as microbial growth inhibition incubated for 24 hrs in the presence of (S,E)-3-(4-(2-(6-(4-Chlorophenyl)-1-methyl-7,8,9,10-tetrahydro-4H-benzo-(4,5]thieno(3,2-f)(1,2,4)triazolo(4,3-a)(1,4]diazepin-4-yl)acetamido)pheny1)N-hydroxyacrylamide by checkerboard microdilution method. Format: functional.

Assay [14] deals with Candida albicans. The experiment in a line: Antibiofilm activity against FLC-resistant Candida albicans 0304103 assessed as reduction in fungal growth at 32 ug/mL and measured for 48 hrs by time-growth curve assay. Format: functional, organism-based. To be noted: dose 32.0 µg/ml.
Assay [15] relates to Candida albicans. In words: Synergetic antifungal activity against Candida albicans 0304103 assessed as microbial growth inhibition incubated for 24 hrs in the presence of (S,E)-3-(4-(2-(6-(4-Chlorophenyl)-1-methy1-4H-benzo[f][1,2,4]-triazolo(4,3-a)[1,4]diazepin-4-yl)acetamido)phenyl)-N-hydroxyacrylamide by checkerboard microdilution method. The class given is functional.
For assay [16], the system named is Candida albicans. In words: Synergetic antifungal activity against Candida albicans 0304103 assessed as microbial growth inhibition incubated for 24 hrs in the presence of (S)-2-(8-Chloro-6-(2-chlorophenyl)-1-methyl-4H-benzo[f][1,2,4]-triazolo(4,3-a][1,4]diazepin-4-y1)-N-(4-(2-(hydroxyamino)-2-oxoethyl)-phenyl)acetamide by checkerboard microdilution method. Format: functional.

The subject of assay [17] is Candida albicans. In words: Antifungal activity against Candida albicans SC5314 assessed as fungal growth inhibition incubated for 24 hrs by broth dilution method. The class given is functional.

Each structure is given as a SMILES string. Converted amounts (≈) assume the structure as drawn. The source made the active and inactive calls. The calls are words filed in the database; no cut-off is given here.

On to `OC(Cn1cncn1)(Cn1cncn1)c1ccc(F)cc1F` [FLUCONAZOLE], for which the MIC80 in the assay with Candida albicans [1] is 0.5 µg/mL; in the assay on Candida albicans [3], 0.5 µg/mL; with Candida albicans [4], above 64 µg/mL; in [Candida] auris it was 64 µg/mL; against Candida albicans [5], above 64 µg/mL; in the assay on Candida albicans [6] it was above 64 µg/mL. The MIC80 in the assay on Cryptococcus neoformans came to 2 µg/mL; with Candida albicans [7], 2 µg/mL; in the assay on Candida albicans [8], 1 µg/mL; in the assay on Candida albicans [9] it was 1 µg/mL; with Candida albicans [10], 4 µg/mL; with Candida albicans [12] it was 2 µg/mL. In addition, the MIC80 was found to be 0.25 µg/mL in the assay with Candida albicans [13], 0.25 µg/mL with Candida albicans [15], 1 µg/mL in the assay on Candida albicans [16] and 0.5 µg/mL (≈ 1.63 µM) with Candida albicans [17]. Also, the result in the assay on Candida albicans [2], in the assay with Candida albicans [11] and in the assay with Candida albicans [14] was inactive.
